Experimental data as given in paper PMC9655717, “New Molecules of Diterpene Origin with Inhibitory Properties toward α-Glucosidase” (International Journal of Molecular Sciences, 2022).
Converted amounts (≈) assume the structure as drawn.

Key:
[1] = target: T1, yeast α-GLy (α-glucosidase, Sigma G0660) (Saccharomyces cerevisiae, UniProt P53341); assay: biochemical; assay type: biochemical; conditions: IC50 ± SE, α-glucosidase inhibition, yeast α-glucosidase, 37°C, pH 6.8
T1 construct: purchased Sigma G0660
Procedure: S1. Materials and Methods […]
glucosidase inhibition assay. α-Glucosidase enzyme inhibition assay was carried out in a 96-well microplate. The method’s principle based on the hydrolyzed reaction of 4-nitrophenyl-α-D-glucopiranoside with α-glucosidase enzyme into yellow 4- […]
p-Nitrophenyl α-D-Glucoside a- Gl ucosidas e α-D-Glucose + p- Nitrophenol α-Glucosidase inhibitory activity assay was performed following the modified method of Pistia Brueggeman and Hollingsworth with slight modification. Quinopimaric […]
concentrations of 256, 64, 16, 4 and 1 µg/mL. In a 96-well plate, a reaction mixture containing 20 μL of phosphate buffer (100 mM; pH 6.8), 20 μL of α-glucosidase (0.3 U/mL, Sigma G0660) (this concentration was determined by a series of α-glucosidase […]
linearity between the enzyme concentration and the absorbance of yellow color mixture after reaction which was approximately 5-fold higher than the back ground and at least […]
concentrations was pre-incubated for 10 min at 37°C. Then 20 μL of […] p-nitrophenyl α-D-glucopyranoside (Sigma N1377) was added to the mixture as a substrate. After further incubation at 37°C for 30 min, the reaction was stopped by adding 80 μL of 0.1 […]
solution were prepared using the phosphate buffer […]; pH 6.8. […]
as a positive control and water as negative control. The yellow color produced was quantitated by colorimetric analysis and reading the absorbance at 410 nm. Each experiment was performed in triplicates, along with appropriate blanks. The solvent DMSO was use as negative control to evaluate its effect on α-glucosidase activity. […]
or substrate in negative control. Back ground was determined by volume of buffer as […]
The % inhibition has been obtained using the formula:
% inhibition = {Absorbance (control) –Absorbance (sample)}/Absorbance (control) IC50 value is defined as the concentration of samples inhibiting 50% of α-glucosidase activity under the stated assay conditions. […]

[2] = test system: Escherichia coli (ATCC 25922); assay: Antimicrobial broth microdilution; assay type: cell-based; conditions: ATCC25922, E. coli
Procedure: (§1) Table S2. The result of antimicrobial tests of compounds 38, 45, 48 and 50.
(§2) Gram (+) strains Gram (-) strains Fungi
(§3) Compound Values (µg/ml) S. aureus B. L. S. E. P. C. subtilis fermentum enterica coli aeruginosa albican
(§4) The antimicrobial activity was determined by broth microdilution method as reported by. Broth dilution testing is one of the common methods used for determination of the MICs and IC50. The compounds are examined for visible bacterial growth as evidenced by turbidity. […]
(§5) S1.5. In vitro antimicrobial activity study of compounds 38, 45, 48 and 50 The Gram-positive bacteria: Bacillus subtilis (ATCC 6633), Lactobacillus fermentum (N4), Staphylococcus aureus (ATCC 13709); Gram -negative bacteria: Escherichia coli (ATCC 25922), Pseudomonas aeruginosa (ATCC 15442), Salmonella enterica; Yeast: Candida albicans (ATCC 10231) were obtained from American Type Culture Collection. The bacterial […]
(§6) Sabourand 2% dextrose broth, were purchased from Merck. […]
(§7) remaining at –80 0 C. Before assay, they were activated by culture medium and, adjusted the concentration to 5x10^5 CFU/mL. 10 μL of each concentration of each test […]
(§8) further incubated at 37 °C within 16-24h. The experiment was triplicated. Positive […]
(§9) medium without bacteria as a negative control. Ampicillin was used as a reference […]
(§10) inhibiting 50% the visible growth of the tested microorganisms. MIC, IC50 values are typically expressed as molar concentration. […]
(§11) treated with sample different concentrations on 96-well plates. Untreated cells represented the controls. […]
(§12) crystals are visible. Remove MTT and add DMSO solution (100 μL). The optical density […]
(§13) are evaluated to have cytotoxic activity.

[3] = test system: Candida albicans (ATCC 10231); assay: Antimicrobial broth microdilution; assay type: cell-based; conditions: ATCC10231, C. albican
Procedure: as §1, §2, §3, §4, §5, §6, §7, §8, §9, §10, §11, §12, §13

[4] = test system: Staphylococcus aureus (ATCC 13709); assay: Antimicrobial broth microdilution; assay type: cell-based; conditions: ATCC13709, S. aureus
Procedure: as §1, §2, §3, §4, §5, §6, §7, §8, §9, §10, §11, §12, §13

[5] = test system: Pseudomonas aeruginosa (ATCC 15442); assay: Antimicrobial broth microdilution; assay type: cell-based; conditions: ATCC15442, P. aeruginosa
Procedure: as §1, §2, §3, §4, §5, §6, §7, §8, §9, §10, §11, §12, §13

Salmonella enterica = assay: Antimicrobial broth microdilution; assay type: cell-based; conditions: S. enterica
Procedure: as §1, §2, §3, §4, §5, §6, §7, §8, §9, §10, §11, §12, §13

[6] = test system: Bacillus subtilis (ATCC 6633); assay: Antimicrobial broth microdilution; assay type: cell-based; conditions: ATCC6633, B. subtilis
Procedure: as §1, §2, §3, §4, §5, §6, §7, §8, §9, §10, §11, §12, §13

[7] = test system: Lactobacillus fermentum (N4); assay: Antimicrobial broth microdilution; assay type: cell-based; conditions: L. fermentum
Procedure: as §1, §2, §3, §4, §5, §6, §7, §8, §9, §10, §11, §12, §13

[8] = DPPH radical scavenging assay; conditions: DPPH 0.1 mM in methanol, 25°C, 30 min
Procedure: DPPH radical scavenging assay as described by Ha. The hydrogen atom donating ability of the plant extractives was determined by the decolorization of methanol solution of 2,2-diphenyl-1-picrylhydrazyl (DPPH). DPPH produces purple color in methanol solution and fades to shades of yellow color in the presence of antioxidants. […]
DPPH (0.1 mM) was diluted in methanol. 200 μL of this solution was added to 1.3 μL of various concentrations of compounds in DMSO (256.0, 64.0, 16.0, and 4.0 μg/mL). The mixture was performed by a 96-well plate at 25 °C in 30 min. Then, absorbance was determined by Epoch™ Microplate Spectrophotometer (at 517 nm). The percentage of DPPH quenching activity was computed by the following formula:
Inhibitory percentage SC (%) = [(Ao - A1)/Ao] × 100. where AO was defined as the absorbance of control reaction, and A1 represented for the absorbance in the presence of test or standard sample. Each experiment was repeated three times. Quercetin was used as a reference compound. […]

MTT cytotoxicity assay = conditions: human
Procedure: The cytotoxic activity of compounds was evaluated against four cancer cell lines KB, Hep-G2, Lu-1 and MCF-7, using colorimetric MTT assay. […]
MTT assay was used to determine the cytotoxic activity of compounds with human cancer cell lines acquired from the American Type Culture Collection (ATCC): epidermoid carcinoma (KB, ATCC number CCL-17), hepatocellular carcinoma (HepG2, ATCC number HB-8065), lung adenocarcinoma LU-1 (ATCC number HTB - 57TM), breast adenocarcinoma MCF-7 (ATCC number HTB - 22TM. Cells were cultured in medium DMEM supplemented with 10% Fetal bovine serum (FBS), 1% Penicillin and Streptomycin and 1% L-glutamine, under a humidified atmosphere of 5% CO2 at 37°C.
Compounds were dissolved in DMSO at 40 mg/mL and a series of dilutions for each compound was prepared to final concentrations of 256, 64, 16, 4 and 1 μg/mL. Cells were separated with trypsin and seeded in each well with 3 x10^4 cells per ml and were treated with sample different concentrations on 96-well plates. Untreated cells represented the controls. After 72h of treatment, an MTT solution (10 μl, 5 mg/mL) of phosphate buffer was added to each well for 4 h until intracellular purple formazan crystals are visible. Remove MTT and add DMSO solution (100 μL). The optical density of the solution was determined by Epoch™ Microplate Spectrophotometer at 540 nm. The inhibition ratio was calculated based on the optical densities from the three replicate […]
as §13

[9] = Hep-G2 hepatocellular carcinoma cells (ATCC HB-8065)
[10] = KB epidermoid carcinoma cells (ATCC CCL-17)
[11] = Lu-1 lung adenocarcinoma cells (ATCC HTB-57)
[12] = MCF-7 breast adenocarcinoma cells (ATCC HTB-22)

T1 sequence (P53341 whole entry): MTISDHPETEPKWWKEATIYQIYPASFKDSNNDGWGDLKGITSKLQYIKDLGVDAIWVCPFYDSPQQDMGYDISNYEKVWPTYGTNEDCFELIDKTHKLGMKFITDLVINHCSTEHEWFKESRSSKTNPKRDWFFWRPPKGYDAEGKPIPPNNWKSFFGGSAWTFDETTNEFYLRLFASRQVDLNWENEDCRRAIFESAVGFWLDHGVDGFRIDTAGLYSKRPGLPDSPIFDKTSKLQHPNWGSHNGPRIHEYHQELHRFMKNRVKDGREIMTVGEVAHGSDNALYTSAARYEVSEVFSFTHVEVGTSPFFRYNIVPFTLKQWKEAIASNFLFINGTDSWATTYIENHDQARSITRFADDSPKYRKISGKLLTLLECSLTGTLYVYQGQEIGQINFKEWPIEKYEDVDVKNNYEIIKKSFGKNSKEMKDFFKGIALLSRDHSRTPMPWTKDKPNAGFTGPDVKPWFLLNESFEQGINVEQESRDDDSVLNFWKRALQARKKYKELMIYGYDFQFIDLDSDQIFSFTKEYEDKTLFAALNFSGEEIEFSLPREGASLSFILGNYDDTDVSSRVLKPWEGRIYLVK

Row | SMILES | melting point [°C] | IC50 [1] [nM] | IC50 [2] [µg/mL] | MIC [2] [µg/mL] | IC50 [3] [µg/mL] | MIC [3] [µg/mL] | IC50 [4] [µg/mL] | MIC [4] [µg/mL] | IC50 [5] [µg/mL] | MIC [5] [µg/mL] | IC50 (Salmonella enterica) [µg/mL] | MIC (Salmonella enterica) [µg/mL] | IC50 [6] [µg/mL] | MIC [6] [µg/mL] | IC50 [7] [µg/mL] | MIC [7] [µg/mL] | IC50 values, antioxidant test (DPPH) [8] [µg/mL] | IC50 at 72 h (MTT cytotoxicity assay; [9]) [µg/mL] | IC50 at 72 h (MTT cytotoxicity assay; [10]) [µg/mL] | IC50 at 72 h (MTT cytotoxicity assay; [11]) [µg/mL] | other results
1 | COC(=O)c1c(C)[nH]c2c3c(c(OCCC#N)cc12)C1CC2C3(C=C1C(C)C)CCC1C(C)(C(=O)OC)CCCC12C (stereo not shown) [Compound 47, Methyl 1-(8′-cyanoethoxy)-13-isopropyl-1′-(ethoxycarbonyl)-7,10a,2′-trimethyl-5,6,6b,7,8,9,10,10a,10b,11,12,13-dodecahydro-12,4b-ethenophenanthro [2,1-g]indole-7-carboxylate] | 127 to 129 | 4950 ± 250 |  |  |  |  |  |  |  |  |  |  |  |  |  |  |  |  |  |  | 
2 | C#CCOC(=O)C1(C)CCCC2(C)C1CCC13C=C(C(C)C)C(CC12)C1=C3C(=O)C=CC1=O (stereo not shown) [Compound 48, Propynyl 13-isopropyl-7,10a-dimethyl-1,4-di oxo-4,5,6,6a,7,8,9,10,10a,10b,11,12-dodecahydro-1H-4b,12-ethenochrysene-7-carboxylate] | 85 to 89 | 680 ± 45 | > 256 | > 256 | > 256 | > 256 | 8.29 ± 0.58 (≈ 18.6 µM) | 64 (≈ 143 µM) | > 256 | > 256 | > 256 | > 256 | 45 ± 2.18 (≈ 101 µM) | 256 (≈ 573 µM) | 43.5 ± 2.52 (≈ 97.5 µM) | 256 (≈ 573 µM) | 177.45 ± 3.5 (≈ 397 µM) | 46 ± 0.8 (≈ 103 µM) | 30.5 ± 0.7 (≈ 68.3 µM) | 10.2 ± 0.18 (≈ 22.7 µM) | IC50 at 72 h (MTT cytotoxicity assay; [12]): 39.2 ± 0.78 µg/mL (≈ 87.9 µM)
3 | CC(C)C1=CC23CCC4C(C)(C(=O)O)CCCC4(C)C2CC1c1c(O)ccc(O)c13 (stereo not shown) [Compound 49] |  | > 255000 |  |  |  |  |  |  |  |  |  |  |  |  |  |  |  |  |  |  | 
4 | CC(C)C1=CC23CCC4C(C)(C(=O)O)CCCC4(C)C2CC1c1c(OCCC#N)ccc(OCCC#N)c13 (stereo not shown) [Compound 50, 1,4-Bis(2′-cyanoethoxy)-13-isopropyl-7,10a-dimethyl-6,6a,7,8,9,10,10a,10b,11,12-decahydro-5H-4b,12-ethenochrysene-7-carboxylic acid] | 157 to 159 | 230 ± 10 | > 256 | > 256 | > 256 | > 256 | 11 ± 0.83 (≈ 21.3 µM) | 64 (≈ 124 µM) | > 256 | > 256 | > 256 | > 256 | 11.3 ± 0.77 (≈ 21.8 µM) | 64 (≈ 124 µM) | 116 ± 6.93 (≈ 224 µM) | > 256 | 105.50 ± 2.2 (≈ 204 µM) | 110 ± 2.6 (≈ 213 µM) | 57.3 ± 1.2 (≈ 111 µM) | 69.8 ± 1.5 (≈ 135 µM) | IC50 at 72 h (MTT cytotoxicity assay; [12]): 158 ± 4 µg/mL (≈ 305 µM)
5 | O=c1c(O)c(-c2ccc(O)c(O)c2)oc2cc(O)cc(O)c12 [Quercetin, reference compound] |  |  |  |  |  |  |  |  |  |  |  |  |  |  |  |  | 8.01 ± 0.15 (≈ 26.5 µM) |  |  |  | 
